“Also recorded” adds a separate entry of the source.
What was measured:
[1] = biological target: T1, Coprinopsis cinerea galectin CGL2, wild type (Genbank AAF34732) (Coprinopsis cinerea, UniProt Q9P4R8); test: Isothermal Titration Microcalorimetry (ITC), in vitro binding of C. cinerea galectin CGL2 to synthetic trisaccharide; details: 25° C.
T1 construct: amplifying the respective open reading frame from cDNA or available plasmids; made in house; host or cells: Escherichia coli BL21(DE3), vector pET24a
T1 sequence (Q9P4R8 whole entry): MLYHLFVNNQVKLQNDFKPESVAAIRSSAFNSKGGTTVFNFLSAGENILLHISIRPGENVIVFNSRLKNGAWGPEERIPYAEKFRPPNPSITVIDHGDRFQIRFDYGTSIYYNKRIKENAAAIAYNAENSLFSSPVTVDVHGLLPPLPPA
Experimental: The raw data is shown in the upper panel.
Bacterial cell pellets were resuspended in ice-cold phosphate-buffered saline (PBS) [30 mM Na-phosphate pH 7.3, 150 mM NaCl] containing 1 mM phenylmethylsulfonyl fluoride and ruptured using a French press. Cell debris was removed in two consecutive steps of centrifugation at 12000 g for 15 min and 27000 g for 30 min. The supernatant was incubated with lactosyl-sepharose at 4° C. for 1 h and CGL2 was finally eluted at room temperature in PBS containing 200 mM lactose. After size exclusion chromatography on Superose 6 10/300 GL (GE Healthcare) equilibrated in PBS, fractions containing the protein were pooled and concentrated using an Amicon Ultra-4 centrifugal filter device (Millipore) with a molecular weight cutoff of 10 kDa. Protein concentration was calculated by measuring the absorbance at 280 nm, assuming a relation of 1.25 mg mk^−1 to 1 unit absorbance at 280 nm for a path length of 1 cm. Conjugation of purified CGL2 to tetramethylrhodamine (TAMRA) (Molecular Probes) was performed as described in Walser, P. J. et al. (2005) Fungal Genet Biol 42, 293-305.
Experiments were performed with a VP-ITC isothermal titration calorimeter (Microcal, Mass., USA) at 25° C. using purified CGL2 (300 μM in TBS). Gal-β-1,4-Fuc-α-1,6-GlcNAc-β-O—C5H10-NH2 was dissolved in TBS at a concentration of 1.6 mM corrected based on purity estimate by ^1H-NMR (ca. 50-60%). The ligand was titrated into a cell containing the protein solution in 48 injections of 6 μl preceded by a single injection of 2 μl. All injections were performed at intervals of 3 min while stirring at 270 rpm. Experimental data were fitted to a theoretical titration curve using the MCS—ORIGIN software supplied by Microcal.

[2] = system: C. elegans; test: C. elegans toxicity plate assay (development L1 to L4 on lectin-expressing E. coli); format: in vivo, Caenorhabditis elegans; details: lectin-expressing E. coli cells as food source
Experimental: (§1) FIG. 1 is a bar chart showing the toxicity of various fungal lectins towards C. elegans. C. elegans wildtype (N2) and pmk-1 mutant worms were analysed for development from L1 to L4 on lectin-expressing bacteria as described in the Experimental Procedures. The y-coordinate is the fraction of worms reaching L4 in the presence of bacteria expressing the lectins on the X-coordinate. Fungal lectins analyzed included C. cinerea galectins CGL1 (Genbank AAF34731) and CGL2 (Genbank AAF34732), galectin-related lectin CGL3 (Genbank ABD64675) and lectin RedA (CCL2) (Genbank ACD88750), Xerocomus chrysenteron lectin XCL (Genbank AAL73235) and its ortholog TAP1 from Sordaria macrospora (Genbank CAH03681), Aleuria aurantia lectin AAL (Genbank BAA00451) and Marasmius oreades agglutinin MOA (Genbank AAL47680).
Plasmids for bacterial expression of fungal lectins were constructed by amplifying the respective open reading frame from cDNA or available plasmids and ligating the resulting fragment into pET24a (Invitrogen) using introduced restriction sites. […]
Quantitative data on the effect of CGL2 on C. elegans development was acquired by placing 50 to 100 newly hatched L1 larvae of the indicated genotypes on the plates. After 72 h, the fraction of animals that reached L4 stage was determined.

[3] = system: C. elegans glycosylation mutants; test: Lectin sensitivity of C. elegans glycosylation mutants (development L1 to L4); format: in vivo, Caenorhabditis elegans; details: testing of C. elegans glycosylation mutants, forward genetic screen
Experimental: FIG. 4 is a graph showing the CGL2-sensitivity of various C. elegans glycosylation mutants. C. elegans mutants of the genotypes indicated in the X-coordinate were analysed for development from L1 to L4 on CGL2-expressing E. coli as described in the experimental procedures below. See Table 1 below for glycosylation processes encoded by the various C. elegans genes.
FIG. 8 is a bar graph illustrating the RedA(CCL2)-sensitivity of various C. elegans glycosylation mutants. C. elegans mutants of the indicated genotypes were analysed for development from L1 to L4 on RedA-expressing E. coli as described in the below experimental procedures. Mutants not analyzed yet are indicated as n.d. See Table 1 below for glycosylation processes encoded by the various C. elegans genes.
FIG. 9 is a bar graph illustrating the MOA-sensitivity test of various C. elegans glycosylation mutants. C. elegans mutants of the indicated genotypes were analysed for development from L1 to L4 on MOA-expressing E. coli as described in experimental procedures below. Mutants not analyzed yet are indicated as n.d. […]
FIG. 10 is a bar graph illustrating the AAL-sensitivity of various C. elegans glycosylation mutants. C. elegans mutants of the indicated genotypes were analysed for development from L1 to L4 on AAL-expressing E. coli as described in Experimental Procedures. […]

[4] = system: H. contortus; test: Haemonchus contortus toxicity assay (development L1 to L3, liquid, 96-well); format: in vivo; details: bacterivorous stages fed lectin-expressing E. coli
Experimental: as §1, with “FIG. 12” for “FIG. 1”, “towards H. contortus. The nematodes” for “towards C. elegans. C. elegans wildtype (N2) and pmk-1 mutant worms”, “to L3” for “to L4”, “reaching L3” for “reaching L4”, “cinerea galectin” for “cinerea galectins CGL1 (Genbank AAF34731) and”, “(Genbank ABD64675),” for “(Genbank ABD64675) and”
The toxicity towards the above-mentioned parasitic nematode was evaluated in a liquid assay using 96-well cell culture plates. H. contortus eggs were isolated from feces of an infected sheep and hatched on water-agar plates containing Kanamycin (50 μg/ml) and Amphotericin B (2.5 μg/ml). Approximately 30 L1 larvae were collected and transferred to each well, in a total volume of 150 μl 0.1× Earls solution. […] Plates were incubated at 28° C. in the dark, and percentage of larvae that developed to L3 were determined after 7 days.

[5] = TBS, model of one ligand-binding site per protein monomer

Molecule	entropy of binding (TΔS) ([1]; TBS)	enthalpy change (ΔH) [1, 5]	number of binding sites (N) [1, 5]	Kd ([1]; purified CGL2 300 μM in TBS, ligand 1.6 mM, one ligand-binding site per protein monomer, read-out: dissociation constant (Kd))	toxicity towards C. elegans [2]	glycan that mediates nematotoxicity / is recognized in C. elegans [3]	toxicity towards H. contortus [4]
CC(=O)N[C@H]1[C@H](OCCCCCN)O[C@H](CO[C@@H]2O[C@@H](C)[C@@H](O[C@@H]3O[C@H](CO)[C@H](O)[C@H](O)[C@H]3O)[C@@H](O)[C@@H]2O)[C@@H](O)[C@@H]1O [Gal-β-1,4-Fuc-α-1,6-GlcNAc-β-O—C5H10—NH2]	-3.31 kcal/mol	-8.85 ± 0.1 kcal/mol	0.977±0.004	86.9 µM	–	–	–
AAL: β-propeller lectin from the ascomycete Aleuria aurantia (Genbank BAA00451) (protein, UniProt P18891 2-313, looked up) Fucose-specific lectin: PTEFLYTSKIAAISWAATGGRQQRVYFQDLNGKIREAQRGGDNPWTGGSSQNVIGEAKLFSPLAAVTWKSAQGIQIRVYCVNKDNILSEFVYDGSKWITGQLGSVGVKVGSNSKLAALQWGGSESAPPNIRVYYQKSNGSGSSIHEYVWSGKWTAGASFGSTVPGTGIGATAIGPGRLRIYYQATDNKIREHCWDSNSWYVGGFSASASAGVSIAAISWGSTPNIRVYWQKGREELYEAAYGGSWNTPGQIKDASRPTPSLPDTFIAANSSGNIDISVFFQASGVSLQQWQWISGKGWSIGAVVPTGTPAGW	–	–	–	–	toxic	binds terminal Fuc on a yet to be identified nematode glycoconjugate; also recorded: dependent on GDP-fucose biosynthesis	toxic

Reference: patent publication US20120207737A1, “MEDICAL UTILITY OF GLYCAN-BINDING PROTEINS AND GLYCANS” (UNIVERSITY OF ZURICH, priority 2009, published 2012)
